In assay [1] the target is T1, REC12 (P-cadherin monomer mutant) (Homo sapiens, UniProt P22223, INS0R).
T1 construct: gene CDH3; EC12 (EC1-EC2, residues 1-241) with Arg inserted at N terminus; biotinylated for chip capture; E. coli Rosetta2(DE3), SUMO tag cut with Ulp1; monomer
In words: SPR, Scatchard analysis of equilibrium responses. The class given is binding.

Assay [2] addresses T2, EC12 (P-cadherin) (Homo sapiens, UniProt P22223).
T2 construct: gene CDH3; EC1-EC2, residues 1-241, wild type; E. coli, SUMO cut; amine-coupled to CM5 chip
In words: SPR ABA assay, disruption of EC12 dimer on chip. It counts as binding. As to conditions: 100 µM compound, 2 µM EC12 in solution A.

For assay [3], the target named is T3, REC12 (P-cadherin monomer mutant) (Homo sapiens, UniProt P22223).
T3 construct: gene CDH3
As to conditions: pH 7.5, 25 °C, 3 mM CaCl2, 5% DMSO; construct printed only as P-cadherin.

The target in assay [4] is C-terminally His-tagged P-cadherin MEC12 (X dimer), on liposomes (human).
The target of assay [5] is P-cadherin MEC12 (X dimer) K14A. In words: SEC-MALS. As to conditions: N = 1; parent: est. 33; read off a plot.

T3 sequence (P22223 107-348, change not shown): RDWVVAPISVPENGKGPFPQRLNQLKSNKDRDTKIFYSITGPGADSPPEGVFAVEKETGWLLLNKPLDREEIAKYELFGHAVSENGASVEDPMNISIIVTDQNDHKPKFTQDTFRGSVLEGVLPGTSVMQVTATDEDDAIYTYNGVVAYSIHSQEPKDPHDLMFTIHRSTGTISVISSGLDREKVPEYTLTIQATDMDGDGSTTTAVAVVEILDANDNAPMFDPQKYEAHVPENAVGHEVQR
T1 sequence (P22223 107-348, stated change not applied): as the sequence (P22223 107-348, change not shown) above
T2 sequence (P22223 108-348): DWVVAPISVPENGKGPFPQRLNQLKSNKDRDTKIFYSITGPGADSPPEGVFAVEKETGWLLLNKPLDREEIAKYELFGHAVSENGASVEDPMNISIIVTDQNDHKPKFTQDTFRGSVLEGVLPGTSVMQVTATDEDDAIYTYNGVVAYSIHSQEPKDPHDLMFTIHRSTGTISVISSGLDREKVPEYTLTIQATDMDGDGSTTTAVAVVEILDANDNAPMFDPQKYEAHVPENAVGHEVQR

Take `Cc1[nH]c2ccc(Cl)cc2c1CCN` [Hit 1]: in assay [1], the Kd was roughly 916 µM. For the same compound, the “SPR ABA assay, disruption of EC12 dimer on chip” value in assay [2] is “These compounds bound to and disrupted the dimerization”.

Take `NCCc1c[nH]c2ccccc12` [tryptamine]: in assay [3], the SPR direct binding entry was “only tryptamine bound to P-cadherin”.

As to “C-terminally His-tagged P-cadherin MEC12 (X dimer), on liposomes (domain or fragment)”, in assay [4], the kobs of liposome aggregation (optical density at 650 nm after addition of CaCl2, one-phase association), in the absence of Hit 1; no aggregation with EDTA or without MEC12 was 0.0086 and the kobs of liposome aggregation (optical density at 650 nm after addition of CaCl2, one-phase association), in the presence of Hit 1 stood at 0.0033.

As for “P-cadherin MEC12 (X dimer) as used in SEC-MALS and HDX-MS K14A”, the other: molecular weight (SEC-MALS) in assay [5] was 24 kDa.

For the origin of these results see PMC8423723, “Regulation of cadherin dimerization by chemical fragments as a trigger to inhibit cell adhesion” (Communications Biology, 2021).
